Test results: ChEMBL document CHEMBL1201862, “PubChem BioAssay data set” (2004)
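Each compound was tested at five concentrations against cells in 96-well plates for 48 hours. Abbreviation: GI50, concentration required for 50% inhibition of growth.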 Active and inactive are the calls of the source. Cut-off read from the data, not from the text of the source: active = GI50 up to about 1.1 µM and inactive = higher.

How the values were obtained:
Assay in all cases: DTP human tumour cell line panel, 48 h
T47D = tested on: T47D
U-251 = tested on: U-251
NCI-H23 = tested on: NCI-H23
SK-MEL-2 = tested on: SK-MEL-2
SR = tested on: SR
NCI-H460 = tested on: NCI-H460
OVCAR-5 = tested on: OVCAR-5
SNB-75 = tested on: SNB-75
UACC-257 = tested on: UACC-257
786-0 = tested on: 786-0
A498 = tested on: A498
A549 = tested on: A549
PC-3 = tested on: PC-3
HOP-92 = tested on: HOP-92
CAKI-1 = tested on: CAKI-1
TK-10 = tested on: TK-10
NCI-H226 = tested on: NCI-H226
HCC 2998 = tested on: HCC 2998
RPMI-8226 = tested on: RPMI-8226
UO-31 = tested on: UO-31
EKVX = tested on: EKVX
SW-620 = tested on: SW-620
RXF 393 = tested on: RXF 393
IGROV-1 = tested on: IGROV-1
Hs-578T = tested on: Hs-578T
MOLT-4 = tested on: MOLT-4
COLO 205 = tested on: COLO 205
HCT-15 = tested on: HCT-15
Malme-3M = tested on: Malme-3M
MCF7 = tested on: MCF7
HT-29 = tested on: HT-29
SF-268 = tested on: SF-268
HL-60 = tested on: HL-60
SF-295 = tested on: SF-295
CCRF-CEM = tested on: CCRF-CEM
MDA-MB-435 = tested on: MDA-MB-435
SK-MEL-5 = tested on: SK-MEL-5
NCI/ADR-RES = tested on: NCI/ADR-RES
KM12 = tested on: KM12
SNB-19 = tested on: SNB-19
SF-539 = tested on: SF-539
M14 = tested on: M14
NCI-H522 = tested on: NCI-H522
UACC-62 = tested on: UACC-62
SK-OV-3 = tested on: SK-OV-3
HCT-116 = tested on: HCT-116
OVCAR-3 = tested on: OVCAR-3
OVCAR-8 = tested on: OVCAR-8
LOX IMVI = tested on: LOX IMVI
SK-MEL-28 = tested on: SK-MEL-28
MDA-N = tested on: MDA-N
DU-145 = tested on: DU-145
HOP-62 = tested on: HOP-62
BT-549 = tested on: BT-549
ACHN = tested on: ACHN
OVCAR-4 = tested on: OVCAR-4
K562 = tested on: K562
SN12C = tested on: SN12C
MDA-MB-231 = tested on: MDA-MB-231

For CCOC(=O)Cn1nc2ccc(Nc3nc4ccccc4nc3C(=O)OCC)cc2n1, the GI50 (T47D) was 37.5 µM (inactive), the GI50 (U-251) was 44.4 µM (inactive) and the GI50 (NCI-H23) was 76.6 µM (inactive). The GI50 (SK-MEL-2) was 54.6 µM (inactive), the GI50 (SR) was > 100 µM (inactive) and the GI50 (NCI-H460) was > 100 µM (inactive). For the same compound, the GI50 (OVCAR-5) was > 100 µM (inactive), the GI50 (SNB-75) was 16.8 µM (inactive) and the GI50 (UACC-257) was > 100 µM (inactive). The GI50 (786-0) was 33.4 µM (inactive), the GI50 (A498) was 60.1 µM (inactive) and the GI50 (A549) was > 100 µM (inactive). The GI50 (PC-3) was 98.4 µM (inactive), the GI50 (HOP-92) was 31.1 µM (inactive) and the GI50 (CAKI-1) was > 100 µM (inactive). The GI50 (TK-10) was 38.4 µM (inactive), the GI50 (NCI-H226) was 59.8 µM (inactive) and the GI50 (HCC 2998) was 83 µM (inactive). The GI50 (RPMI-8226) was > 100 µM (inactive), the GI50 (UO-31) was 20.8 µM (inactive) and the GI50 (EKVX) was 52 µM (inactive). The GI50 (SW-620) was > 100 µM (inactive), the GI50 (RXF 393) was 23.6 µM (inactive) and the GI50 (IGROV-1) was 69.7 µM (inactive). For the same compound, the GI50 (Hs-578T) was 33.9 µM (inactive), the GI50 (MOLT-4) was > 100 µM (inactive) and the GI50 (COLO 205) was > 100 µM (inactive). For the same compound, the GI50 (HCT-15) was over 100 µM, the GI50 (Malme-3M) was 45.6 µM (inactive) and the GI50 (MCF7) was 76.4 µM (inactive). For the same compound, the GI50 (HT-29) was 42 µM (inactive), the GI50 (SF-268) was 47.4 µM (inactive) and the GI50 (HL-60) was > 100 µM (inactive). For the same compound, the GI50 (SF-295) was 45.1 µM (inactive), the GI50 (CCRF-CEM) was > 100 µM (inactive) and the GI50 (MDA-MB-435) was > 100 µM (inactive). For the same compound, the GI50 (SK-MEL-5) was > 100 µM (inactive), the GI50 (NCI/ADR-RES) was 54.6 µM (inactive) and the GI50 (KM12) was > 100 µM (inactive). For the same compound, the GI50 (SNB-19) was 34 µM (inactive), the GI50 (SF-539) was 23.5 µM (inactive) and the GI50 (M14) was > 100 µM (inactive). The GI50 (NCI-H522) was 57 µM (inactive), the GI50 (UACC-62) was 66.8 µM (inactive) and the GI50 (SK-OV-3) was 49.3 µM (inactive). For the same compound, the GI50 (HCT-116) was 55 µM (inactive), the GI50 (OVCAR-3) was 63.4 µM (inactive) and the GI50 (OVCAR-8) was 58.2 µM (inactive). The GI50 (LOX IMVI) was > 100 µM (inactive), the GI50 (SK-MEL-28) was > 100 µM (inactive) and the GI50 (MDA-N) was > 100 µM (inactive). For the same compound, the GI50 (DU-145) was > 100 µM (inactive), the GI50 (HOP-62) was 68.7 µM (inactive) and the GI50 (BT-549) was > 100 µM (inactive). For the same compound, the GI50 (ACHN) was > 100 µM (inactive), the GI50 (OVCAR-4) was 42.8 µM (inactive) and the GI50 (K562) was > 100 µM (inactive). For the same compound, the GI50 (SN12C) was > 100 µM (inactive).

Nc1ccc(C(=O)c2cn(CCN3CCOCC3)c3ccccc23)c2ccccc12 was tested, and the GI50 (T47D) was 24.4 µM (inactive), the GI50 (U-251) was 55.6 µM (inactive) and the GI50 (NCI-H23) was 23.8 µM (inactive). For the same compound, the GI50 (SK-MEL-2) was 36.6 µM (inactive), the GI50 (SR) was 22.9 µM (inactive) and the GI50 (NCI-H460) was 34.3 µM (inactive). The GI50 (OVCAR-5) was 39.3 µM (inactive), the GI50 (UACC-257) was 45.6 µM (inactive) and the GI50 (786-0) was 54.6 µM (inactive). For the same compound, the GI50 (A498) was 65.6 µM (inactive), the GI50 (A549) was 40.9 µM (inactive) and the GI50 (PC-3) was 36.1 µM (inactive). For the same compound, the GI50 (CAKI-1) was 62.8 µM (inactive), the GI50 (HCC 2998) was 47.2 µM (inactive) and the GI50 (RPMI-8226) was 26.5 µM (inactive). For the same compound, the GI50 (UO-31) was 44.4 µM (inactive), the GI50 (EKVX) was 21.2 µM (inactive) and the GI50 (SW-620) was 30.8 µM (inactive). The GI50 (IGROV-1) was 16.1 µM (inactive), the GI50 (Hs-578T) was 28.2 µM (inactive) and the GI50 (MOLT-4) was 19.4 µM (inactive). The GI50 (COLO 205) was 24.8 µM (inactive), the GI50 (HCT-15) was 18.2 µM and the GI50 (Malme-3M) was 34.1 µM (inactive). The GI50 (MCF7) was 34 µM (inactive), the GI50 (HT-29) was 22.5 µM (inactive) and the GI50 (SF-268) was 32.6 µM (inactive). For the same compound, the GI50 (HL-60) was 15.4 µM (inactive), the GI50 (SF-295) was 33.3 µM (inactive) and the GI50 (CCRF-CEM) was 3.94 µM (inactive). The GI50 (MDA-MB-435) was 27.7 µM (inactive), the GI50 (SK-MEL-5) was 20.7 µM (inactive) and the GI50 (NCI/ADR-RES) was 22.7 µM (inactive). The GI50 (KM12) was 31.1 µM (inactive), the GI50 (SNB-19) was 75 µM (inactive) and the GI50 (SF-539) was 70.8 µM (inactive). The GI50 (M14) was 44.6 µM (inactive), the GI50 (NCI-H522) was 21 µM (inactive) and the GI50 (UACC-62) was 34 µM (inactive). For the same compound, the GI50 (SK-OV-3) was > 100 µM (inactive), the GI50 (HCT-116) was 31.7 µM (inactive) and the GI50 (OVCAR-3) was 32.6 µM (inactive). For the same compound, the GI50 (OVCAR-8) was 20.2 µM (inactive), the GI50 (LOX IMVI) was 23.4 µM (inactive) and the GI50 (SK-MEL-28) was 38.4 µM (inactive). For the same compound, the GI50 (MDA-N) was 32.5 µM (inactive), the GI50 (DU-145) was 63 µM (inactive) and the GI50 (HOP-62) was 83.4 µM (inactive). The GI50 (BT-549) was 19.1 µM (inactive), the GI50 (ACHN) was 48.9 µM (inactive) and the GI50 (OVCAR-4) was 33 µM (inactive). For the same compound, the GI50 (K562) was 17.3 µM (inactive).

With O=C1C(CO)=C[C@@H](O)[C@H]2O[C@@H]12 [EPOXYDON] the GI50 (T47D) was > 100 µM (inactive), the GI50 (U-251) was 61.5 µM (inactive) and the GI50 (NCI-H23) was 65.6 µM (inactive). The GI50 (SK-MEL-2) was > 100 µM (inactive), the GI50 (SR) was > 100 µM (inactive) and the GI50 (NCI-H460) was 53.1 µM (inactive). For the same compound, the GI50 (OVCAR-5) was > 100 µM (inactive), the GI50 (SNB-75) was 37.4 µM (inactive) and the GI50 (786-0) was 39.8 µM (inactive). The GI50 (A498) was > 100 µM (inactive), the GI50 (A549) was 77.3 µM (inactive) and the GI50 (HOP-92) was > 100 µM (inactive). The GI50 (CAKI-1) was > 100 µM (inactive), the GI50 (NCI-H226) was > 100 µM (inactive) and the GI50 (RPMI-8226) was 33.3 µM (inactive). For the same compound, the GI50 (UO-31) was > 100 µM (inactive), the GI50 (EKVX) was > 100 µM (inactive) and the GI50 (SW-620) was 37.9 µM (inactive). For the same compound, the GI50 (IGROV-1) was > 100 µM (inactive), the GI50 (Hs-578T) was > 100 µM (inactive) and the GI50 (MOLT-4) was > 100 µM (inactive). The GI50 (COLO 205) was > 100 µM (inactive), the GI50 (HCT-15) was over 100 µM and the GI50 (Malme-3M) was > 100 µM (inactive). The GI50 (MDA-MB-231) was > 100 µM (inactive), the GI50 (MCF7) was 21.7 µM (inactive) and the GI50 (HT-29) was > 100 µM (inactive). For the same compound, the GI50 (SF-268) was > 100 µM (inactive), the GI50 (HL-60) was 26 µM (inactive) and the GI50 (SF-295) was > 100 µM (inactive). For the same compound, the GI50 (CCRF-CEM) was 30.7 µM (inactive), the GI50 (MDA-MB-435) was 25.2 µM (inactive) and the GI50 (SK-MEL-5) was > 100 µM (inactive). The GI50 (NCI/ADR-RES) was 75.5 µM (inactive), the GI50 (KM12) was > 100 µM (inactive) and the GI50 (M14) was > 100 µM (inactive). The GI50 (NCI-H522) was > 100 µM (inactive), the GI50 (UACC-62) was > 100 µM (inactive) and the GI50 (SK-OV-3) was > 100 µM (inactive). The GI50 (HCT-116) was 31.1 µM (inactive), the GI50 (OVCAR-3) was > 100 µM (inactive) and the GI50 (OVCAR-8) was > 100 µM (inactive). For the same compound, the GI50 (LOX IMVI) was 23.1 µM (inactive), the GI50 (SK-MEL-28) was > 100 µM (inactive) and the GI50 (MDA-N) was > 100 µM (inactive). For the same compound, the GI50 (DU-145) was > 100 µM (inactive), the GI50 (HOP-62) was > 100 µM (inactive) and the GI50 (BT-549) was 98.9 µM (inactive). For the same compound, the GI50 (ACHN) was 90.2 µM (inactive), the GI50 (OVCAR-4) was 17.7 µM (inactive) and the GI50 (K562) was > 100 µM (inactive). The GI50 (SN12C) was 18.4 µM (inactive).
